# Test results: US20260200926A1, “TREM2 MODULATORS” (Muna Therapeutics ApS, priority 2022, published 2026)
# What was measured:
# [1] = tested on: TREM2 regulated genes CXCL10, CCL2, CST7, and TMEM119; assay: Pharmacodynamics in hTREM2 knock-in mice: brain mRNA expression of TREM2 regulated genes by RT-qPCR; format: in vivo, humanized TREM2 knockin (hTREM2 KI) mice, C57BL/6 background; details: hTREM2 KI mice, oral gavage 50 mg/kg twice a day with a 10-hour interval, brains after 24 hours, RT-qPCR relative to GAPDH, normalized to vehicle
# Method: Humanized TREM2 knockin (hTREM2 KI) mice were used for pharmacodynamics and pharmacokinetics studies. hTREM2 mice were generated by replacement of the mouse TREM2 gene that encodes the full-length protein by the human TREM2 gene in a C57BL/6 mouse strain background. Groups of 10 animals 8-10-week-old hTREM2 mice were treated via oral gavage administration with a TREM2 agonist compound at 50 mg/kg twice a day with a 10-hour interval. After 24 hours, mice were sacrificed and brains were isolated for RNA extraction used for reverse transcription to create complementary DNAs (cDNAs). The relative mRNA expression level of known TREM2 regulated genes were measured by quantitative reverse transcription polymerase chain reaction (RT-qPCR) relative to Glyceraldehyde-3-phosphate dehydrogenase (GAPDH) reference housekeeping gene. Expression of TREM2 regulated genes CXCL10, CCL2, CST7, and TMEM119 were measured as pharmacodynamic biomarkers after TREM2 agonist treatment normalized to vehicle control. These genes are known as microglial activation biomarkers and have previously been reported to respond to TREM2 antibody and small molecule agonist treatment in vivo.
# Statistical Analyses. All graphs represent the mean of all samples in each group±SEM.
# GraphPad Prism software was used to perform statistical analyses. P<0.05 was considered significant difference between vehicle and TREM2 small molecule treatment determined by T-test.
# The relative expression levels for Compound 89A and vehicle were measured.
# [2] = target: T1, Human TREM2 (Homo sapiens, UniProt Q9NZC2); assay: Human TREM2 activity: cellular phosphorylation of Syk (AlphaLISA SureFire Ultra p-SYK) in HEK293/DAP12+TREM2 stable cell line; format: cell-based; details: for Emax: HEK293, maximal response relative to reference agonist example 1B (remaining examples), read-out: Emax; for EC50: phospho-Syk AlphaLISA signal, HEK293/DAP12+TREM2 cells, concentration giving 50% of maximal response, read-out: EC50
# T1 construct: expressed in transfected cells
# T1 sequence (Q9NZC2 19-230): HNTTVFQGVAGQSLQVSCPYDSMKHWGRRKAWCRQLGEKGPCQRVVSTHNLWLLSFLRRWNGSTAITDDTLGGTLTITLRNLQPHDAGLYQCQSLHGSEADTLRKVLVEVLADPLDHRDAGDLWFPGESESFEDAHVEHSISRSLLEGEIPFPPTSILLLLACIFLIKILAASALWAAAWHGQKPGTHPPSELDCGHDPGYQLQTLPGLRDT
# T1 sequence (O43914 22-113 partner): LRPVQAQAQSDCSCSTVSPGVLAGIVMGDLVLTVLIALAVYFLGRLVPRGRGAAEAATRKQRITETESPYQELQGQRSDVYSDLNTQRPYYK
# Method in brief: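 The read-out was p-Syk (Tyr525/526), measured by AlphaLISA in lysates of a stable HEK293/DAP12+TREM2 clone. Cells (10,000/well, plated the day before) received compound for 30 min at 37 °C. Dosing used 8 points in quadruplicate, top 100 μM with 1:6 dilution, 0.5% final DMSO.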
Structure (SMILES),Emax [2],EC50 [2],brain expression level of CCL2 as compared to vehicle control [1],brain expression level of CST7 as compared to vehicle control [1],brain expression level of CXCL10 as compared to vehicle control [1],brain expression level of TMEM119 as compared to vehicle control [1]
"Cc1nc2c(-c3ccc(Cl)cc3F)nc(N3CCOC(c4ncc[nH]4)C3)nc2c(=O)n1C (stereo not shown) [Example 81, 6-(2-(1H-imidazol-2-yl)morpholino)-8-(4-chloro-2-fluorophenyl)-2,3-dimethylpyrimido[5,4-d]pyrimidin-4(3H)-one]",< 75%,> 1 µM,,,,
"Cc1nc2c(-c3ccc(Cl)cc3F)nc(N3CCc4cncnc4CC3)nc2c(=O)n1C [Example 83, 8-(4-chloro-2-fluorophenyl)-2,3-dimethyl-6-(5,6,8,9-tetrahydro-7H-pyrimido[4,5-d]azepin-7-yl)pyrimido[5,4-d]pyrimidin-4(3H)-one]",< 75%,> 1 µM,,,,
"Cc1cnccc1OC1CCN(c2nc(-c3ccc(Cl)cc3F)c3nc(C)n(C)c(=O)c3n2)CC1 [Example 84, 8-(4-chloro-2-fluorophenyl)-2,3-dimethyl-6-(4-((3-methylpyridin-4-yl)oxy)piperidin-1-yl)pyrimido[5,4-d]pyrimidin-4(3H)-one]",< 75%,0.1 to 1 µM,,,,
"Cc1nc2c(-c3ccc(Cl)cc3F)nc(N3CCOC4(CCc5ccccc54)C3)nc2c(=O)n1C (stereo not shown) [Example 85, 8-(4-chloro-2-fluorophenyl)-6-(2,3-dihydrospiro[indene-1,2′-morpholin]-4′-yl)-2,3-dimethylpyrimido[5,4-d]pyrimidin-4(3H)-one]",< 75%,> 1 µM,,,,
"Cc1nc2c(C3CCNCC3)nc(N3CCOC(c4cnn(C)c4)C3)nc2c(=O)n1C (stereo not shown) [Example 87, 2,3-dimethyl-6-(2-(1-methyl-1H-pyrazol-4-yl)morpholino)-8-(piperidin-4-yl)pyrimido[5,4-d]pyrimidin-4 (3H)-one]",75 to 110%,> 1 µM,,,,
"Cc1nc2c(-c3cc(C(F)(F)F)nn3C)nc(N3CCOC(c4cnn(C)c4)C3)nc2c(=O)n1C (stereo not shown) [Example 99, 2,3-dimethyl-6-(2-(1-methyl-1H-pyrazol-4-yl)morpholino)-8-(1-methyl-3-(trifluoromethyl)-1H-pyrazol-5-yl)pyrimido[5,4-d]pyrimidin-4 (3H)-one]",< 75%,0.1 to 1 µM,,,,
"Cc1nc2c(C34CC(C(F)(F)F)(C3)C4)nc(N3CCO[C@@H](c4cnn(C)c4)C3)nc2c(=O)n1C [Example 113, (S)-2,3-dimethyl-6-(2-(1-methyl-1H-pyrazol-4-yl)morpholino)-8-(3-(trifluoromethyl)bicyclo[1.1.1]pentan-1-yl)pyrimido[5,4-d]pyrimidin-4 (3H)-one]",75 to 110%,0.001 to 0.01 µM,,,,
"Cc1nc2c(-c3ccc(Cl)cc3F)nc(N3CC(c4cnn(C)c4)OC(F)(F)C3)nc2c(=O)n1C (stereo not shown) [Example 115, 8-(4-chloro-2-fluorophenyl)-6-(2,2-difluoro-6-(1-methyl-1H-pyrazol-4-yl)morpholino)-2,3-dimethylpyrimido[5,4-d]pyrimidin-4 (3H)-one]",75 to 110%,0.001 to 0.01 µM,,,,
"Cn1cc(C2CN(c3nc(-c4ccc(F)cc4F)c4nc(C(F)(F)F)n(C)c(=O)c4c3F)CC3(CC3)O2)cn1 (stereo not shown) [Example 158, 8-(2,4-difluorophenyl)-5-fluoro-3-methyl-6-(5-(1-methyl-1H-pyrazol-4-yl)-4-oxa-7-azaspiro[2.5]octan-7-yl)-2-(trifluoromethyl)pyrido[3,4-d]pyrimidin-4 (3H)-one]",< 75%,0.1 to 1 µM,,,,
"Cn1c(C(F)(F)F)nc2c(-c3ccc(F)cc3F)nc(C3CCOC(c4cnn(C5CC5)c4)C3)c(F)c2c1=O (stereo not shown) [Example 167, 6-(2-(1-cyclopropyl-1H-pyrazol-4-yl)tetrahydro-2H-pyran-4-yl)-8-(2,4-difluorophenyl)-5-fluoro-3-methyl-2-(trifluoromethyl) pyrido[3,4-d]pyrimidin-4 (3H)-one]",< 75%,0.1 to 1 µM,,,,
"Cc1nc2c(-c3ccc(Cl)cc3F)nc(N3CCn4nc(C(F)(F)F)nc4C3)nc2c(=O)n1C [Example 188, 8-(4-chloro-2-fluorophenyl)-2,3-dimethyl-6-(2-(trifluoromethyl)-5,6-dihydro-[1,2,4]triazolo[1,5-a]pyrazin-7 (8H)-yl)pyrimido[5,4-d]pyrimidin-4 (3H)-one]",< 75%,0.01 to 0.1 µM,,,,

# Continued, in another order:
Emax [2],EC50 [2],Structure (SMILES),brain expression level of CCL2 as compared to vehicle control [1],brain expression level of CST7 as compared to vehicle control [1],brain expression level of CXCL10 as compared to vehicle control [1],brain expression level of TMEM119 as compared to vehicle control [1]
75 to 110%,0.01 to 0.1 µM,"Cc1nc2c(-c3ccc(Cl)cc3F)nc(N3C[C@@H](c4cnn(C)c4)OC(C)(C)C3)nc2c(=O)n1C (single isomer, unassigned) [Example 89A]",1.7 fold,3.25 fold,about 2.5 fold,1.8 fold
< 75%,> 1 µM,"Cc1nc2c(-c3ccc(Cl)cc3F)nc(N3CCCC(N4CC(F)(F)C4)C3)nc2c(=O)n1C (stereo not shown) [Example 80, 8-(4-chloro-2-fluorophenyl)-6-(3-(3,3-difluoroazetidin-1-yl)piperidin-1-yl)-2,3-dimethylpyrimido[5,4-d]pyrimidin-4 (3H)-one]",,,,
75 to 110%,> 1 µM,"Cc1nc2c(-c3ccc(Cl)cc3F)nc(N3CCOC(c4cn(C)cn4)C3)nc2c(=O)n1C (stereo not shown) [Example 82, 8-(4-chloro-2-fluorophenyl)-2,3-dimethyl-6-(2-(1-methyl-1H-imidazol-4-yl)morpholino)pyrimido[5,4-d]pyrimidin-4(3H)-one]",,,,
< 75%,> 1 µM,"Cc1nc2c(-c3ccc(Cl)cc3F)nc(N3CCCc4ccncc4C3)nc2c(=O)n1C [Example 86, 8-(4-chloro-2-fluorophenyl)-2,3-dimethyl-6-(5,6,7,9-tetrahydro-8H-pyrido[3,4-c]azepin-8-yl)pyrimido[5,4-d]pyrimidin-4(3H)-one]",,,,
75 to 110%,0.001 to 0.01 µM,"Cc1nc2c(-c3ccc(Cl)cc3F)nc(N3CC(c4cnn(C)c4)OC4(CCC4)C3)nc2c(=O)n1C (stereo not shown) [Example 90, 8-(4-chloro-2-fluorophenyl)-2,3-dimethyl-6-(6-(1-methyl-1H-pyrazol-4-yl)-5-oxa-8-azaspiro(3,5)nonan-8-yl)pyrimido(5,4-d)pyrimidin-4 (3H)-one]",,,,
75 to 110%,0.001 to 0.01 µM,"Cc1nc2c(-c3ccc(Cl)cc3F)nc(N3CCOC(c4cnn(C)n4)C3)nc2c(=O)n1C (stereo not shown) [Example 91, 8-(4-chloro-2-fluorophenyl)-2,3-dimethyl-6-(2-(2-methyl-2H-1,2,3-triazol-4-yl)morpholino)pyrimido[5,4-d]pyrimidin-4 (3H)-one]",,,,
75 to 110%,0.1 to 1 µM,"Cc1nc2c(-c3ccc(Cl)cc3F)cc(N3CCOC(c4cnn(C)c4)C3)nc2c(=O)n1C (stereo not shown) [Example 104, 8-(4-chloro-2-fluorophenyl)-2,3-dimethyl-6-(2-(1-methyl-1H-pyrazol-4-yl)morpholino)pyrido[3,2-d]pyrimidin-4 (3H)-one]",,,,
< 75%,0.1 to 1 µM,"Cc1nc2c(-c3ccc(Cl)cc3F)cc(N3CCOC(c4cnn(C)c4)C3)cc2c(=O)n1C (stereo not shown) [Example 106, 8-(4-chloro-2-fluorophenyl)-2,3-dimethyl-6-(2-(1-methyl-1H-pyrazol-4-yl)morpholino)quinazolin-4 (3H)-one]",,,,
75 to 110%,0.001 to 0.01 µM,"Cc1cc2c(-c3ccc(Cl)cc3F)nc(N3CCOC(c4cnn(C)c4)C3)nc2c(=O)n1C (stereo not shown) [Example 114, 4-(4-chloro-2-fluorophenyl)-6,7-dimethyl-2-(2-(1-methyl-1H-pyrazol-4-yl)morpholino)pyrido[3,4-d]pyrimidin-8 (7H)-one]",,,,
< 75%,0.1 to 1 µM,"Cc1nc2c(-c3ccc(Cl)cc3F)nc(N3CC(c4cnn(C)c4)OC4(CC4)C3)c(F)c2c(=O)n1C (stereo not shown) [Example 157, 8-(4-chloro-2-fluorophenyl)-5-fluoro-2,3-dimethyl-6-(5-(1-methyl-1H-pyrazol-4-yl)-4-oxa-7-azaspiro[2.5]octan-7-yl)pyrido[3,4-d]pyrimidin-4 (3H)-one]",,,,
75 to 110%,0.001 to 0.01 µM,Cc1cc([C@H]2C[C@@H](c3cc4c(=O)n(C)c(C)nc4c(-c4ccc(F)cc4F)n3)C[C@@H](C)O2)ccn1 [Example 185],,,,
< 75%,0.01 to 0.1 µM,"Cn1cc(C2CN(c3nc(-c4ccc(Cl)cc4F)c4ncn(C)c(=O)c4n3)CCO2)cn1 (stereo not shown) [Example 187, 8-(4-chloro-2-fluorophenyl)-3-methyl-6-(2-(1-methyl-1H-pyrazol-4-yl)morpholino)pyrimido[5,4-d]pyrimidin-4 (3H)-one]",,,,
< 75%,> 1 µM,"Cc1nc2c(-c3ccc(Cl)cc3C#N)nc(N3CC(C)OC(c4cnn(C5CC5)c4)C3)cc2c(=O)n1C (stereo not shown) [Example 198, 5-chloro-2-(6-(2-(1-cyclopropyl-1H-pyrazol-4-yl)-6-methylmorpholino)-2,3-dimethyl-4-oxo-3,4-dihydropyrido[3,4-d]pyrimidin-8-yl)benzonitrile]",,,,
